{"source": "patent US11883526B2", "about": "(priority 2019, dated 2024)", "system": "patients with treatment-resistant depression (TRD)", "assay": "GAD-7 (Example 7)", "format": "in vivo, human", "method": "Overall illness severity was assessed on the Clinical Global Impression of Severity (CGI-S) scale (Guy, “ECDEU Assessment Manual for Psychopharmacology—Revised (DHEW Publ No ADM 76-338)”, Rockville, Md.: U.S. Department of Health, Education, and Welfare, Public Health Service, Alcohol, Drug Abuse, and Mental Health Administration, NIMH Psychopharmacology Research Branch, Division of Extramural Research Programs; 1976, pp 218-222). Participants assessed their severity of anxiety on the Generalized Anxiety Disorder 7-item (GADS-7) Scale (See, Tables 157 and 158). See, Spitzer, “A brief measure for assessing generalized anxiety disorder—the GAD-7”, Arch. Intern. Med., 2006, 166(10):1092-1097.", "data": [{"compound": "CN[C@]1(c2ccccc2Cl)CCCCC1=O", "note": "[esketamine, (S)-2-(2-chlorophenyl)-2-(methylamino)cyclohexanone]", "values": [{"measurement": "GAD-7 change, LS mean difference from placebo (SE)", "setting": "Period 1, 28 mg", "value": "−0.21 (1.461)"}, {"measurement": "GAD-7 change, LS mean difference from placebo (SE)", "setting": "Period 1, 56 mg", "value": "−1.40 (1.478)"}, {"measurement": "GAD-7 change, LS mean difference from placebo (SE)", "setting": "Period 2, 56 mg", "value": "0.60 (1.033)"}]}]}
